Reference: patent US5952307A, “Basic α-aminoalkylphosphonate derivatives” (priority 1997, dated 1999)
Read-outs that look alike come from different tables or passages of the source.

Key:
Format in all cases: biochemical
bovine trypsin [1] = target: T1, bovine trypsin (Bos taurus, UniProt P00760); test: Inactivation rate of bovine trypsin, incubation method; details: Table III; enzyme 0.06-0.5 μM, inhibitor 0.25-42 μM, 9% DMSO, 25° C.; NI = no inhibition
T1 sequence (P00760 24-246): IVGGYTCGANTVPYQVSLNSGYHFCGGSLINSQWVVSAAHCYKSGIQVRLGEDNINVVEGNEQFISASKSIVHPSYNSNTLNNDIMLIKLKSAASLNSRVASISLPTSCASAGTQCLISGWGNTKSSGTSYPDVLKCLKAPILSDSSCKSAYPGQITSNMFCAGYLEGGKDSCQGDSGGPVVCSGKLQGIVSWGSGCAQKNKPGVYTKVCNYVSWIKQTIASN

human granzyme A = target: T2, human granzyme A (Homo sapiens, UniProt P12544); test: Inactivation rate of human granzyme A, incubation method; details: Table I; 0.1M Hepes, 0.01M CaCl2 pH 7.5, 25° C., 7.6% DMSO, substrate Z--Arg--SBzl
T2 sequence (P12544 29-262): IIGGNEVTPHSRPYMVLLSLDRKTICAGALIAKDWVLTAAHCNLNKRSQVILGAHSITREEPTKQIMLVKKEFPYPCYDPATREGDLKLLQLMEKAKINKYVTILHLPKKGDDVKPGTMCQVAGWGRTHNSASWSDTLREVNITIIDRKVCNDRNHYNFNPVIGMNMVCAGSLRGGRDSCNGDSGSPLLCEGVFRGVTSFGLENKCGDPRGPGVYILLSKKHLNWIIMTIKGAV
Outline: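 Inhibitor in DMSO added to enzyme (0.01-2.3 μM) in 0.1 M HEPES, 0.01 M CaCl2, pH 7.5, 25° C (DMSO 7.6% for granzyme A, 7.1% for granzyme K); residual activity on Z-Arg-SBzl with DTNB read at intervals. Kobs from ln vt/vo vs time plots.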

rat granzyme A = test: Inactivation rate of rat granzyme A, incubation method; details: Table I; 0.1M Hepes, 0.01M CaCl2 pH 7.5, 25° C., 7.6% DMSO, substrate Z--Arg--SBzl
Procedure: (§1) Inactivation rates of serine proteases by aryl diesters of peptidyl derivatives of α-aminoalkylphosphonates were measured by the incubation method. An aliquot of inhibitor (25 or 50 μl) in Me2 SO was added to a buffered enzyme solution (0.01-2.3 μM) to initiate the inactivation. Aliquots (50 μl) were withdrawn at various intervals and the residual enzymatic activity was measured. Me2 SO concentration in the reaction mixture was 8-12% (v/v). A 0.1 M HEPES, 0.01 M CaCl2, pH 7.5 buffer was utilized for trypsin and trypsin-like enzymes. A 0.1 M HEPES, 0.5 M NaCl, pH 7.5, was utilized for the other serine proteases. Peptide thioesters or peptide nitroanilides with the appropriate sequences were used as substrates for various serine proteases. All peptide thioesters hydrolysis rates were measured with the assay mixture containing 4,4'-dithiodipyridine {ε324 =19800 M^-1 cm^-1; Grasetti & Murray, Arch. Biochem. Biophys. 1967, 119, 41-48}. Peptide 4-nitroanilide hydrolysis was measured at 410 nm {ε410 =8800 M^-1 cm^-1; Erlanger et al., Arch. Biochem. Biophys. 1961, 95, 271-278}. First order inactivation rate constants (Kobs) were obtained from plots of In vt /vo vs time, and the correlation coefficients were greater then 0.98.
(§2) ^a Inhibition constants were measured in 0.1M Hepes, 0.01M CaCl2
(§3) pH 7.5 for trypsin, granzymes A, and K, and in 0.1M Hepes, 10% glycerol,
(§4) 10 mM heparin, pH 7.5 for mast cell tryptase, and at 25° C. The
(§5) reaction mixtures contained 2% DMSO for trypsin, 7.6% for granzyme A, and
(§6) 7.1% for granzyme K and tryptase. The substrate was Z--Arg--SBzl for
(§7) granzymes and trypsin, and Z--Arg--SBzl or Z--Lys--SBzl for tryptase in
(§8) the presence of DTNB. The inhibitor # concentration ranged from 0.001 to
(§9) ^b NI, no inhibition after 25 min of incubation with enzyme.

mast cell tryptase = mast cell tryptase (Homo sapiens, UniProt Q15661); test: Inactivation rate of mast cell tryptase, incubation method; details: for kobsd /[I] mast cell tryptase: Table I, 0.1M Hepes, 10% glycerol, 10 mM heparin, pH 7.5, 25° C., 7.1% DMSO, NI = no inhibition after 25 min of incubation; for kobs /[I] mast cell tryptase: 25° C., NI = no inhibition
Sequence of mast cell tryptase (Q15661 31-275): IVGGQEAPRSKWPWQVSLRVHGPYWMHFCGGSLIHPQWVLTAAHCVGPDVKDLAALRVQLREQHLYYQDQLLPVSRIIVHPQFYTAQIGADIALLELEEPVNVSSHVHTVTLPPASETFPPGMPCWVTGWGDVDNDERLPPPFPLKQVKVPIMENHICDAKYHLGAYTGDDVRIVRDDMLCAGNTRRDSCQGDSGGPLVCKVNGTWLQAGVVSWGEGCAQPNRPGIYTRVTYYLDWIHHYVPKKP
Outline: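 Incubation method at 25 °C: 0.07 μM tryptase with 20–66 μM inhibitor in Hepes pH 7.5 containing heparin, glycerol and DMSO. Aliquots were withdrawn at intervals for residual activity on Z-Arg-SBzl or Z-Lys-SBzl with DTNB. Pseudo-first-order kobs came from ln(vt/v0) versus time.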

bovine trypsin [2] = target: T1, bovine trypsin; test: Inactivation rate of bovine trypsin, incubation method; details: for kobsd /[I] bovine trypsin: Table I, 0.1M Hepes, 0.01M CaCl2 pH 7.5, 25° C., 2% DMSO, substrate Z--Arg--SBzl, NI = no inhibition after 25 min; for kobs /[I] bovine trypsin: Table II, 0.13 μM trypsin, 0.25-42 μM inhibitor, 80 mM Hepes pH 7.5, 1 mM CaCl2, 8% DMSO, 25° C., NI = no inhibition
Outline: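 Incubation method: trypsin pre-incubated with inhibitor (0.25-42 μM) at 25° C in 80 mM Hepes, 1 mM CaCl2, pH 7.5, 8% DMSO; aliquots withdrawn over time for residual activity on Z-Arg-SBzl thioester with DTNB or 4,4'-dithiodipyridine. Pseudo-first-order kobs from ln vt/vo versus time.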

human thrombin = target: T3, human thrombin (Homo sapiens, UniProt P00734); details: 25° C., NI = no inhibition
T3 construct: bovine trypsin, human thrombin
Outline: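 Irreversible inactivation followed by incubation method at 25 °C: 0.07 μM thrombin with 0.25–42 μM inhibitor in 80 mM Hepes pH 7.5, 428 mM NaCl, 8% DMSO. Residual activity of withdrawn aliquots measured with thioester or 4-nitroanilide substrates; kobs from pseudo-first-order fits.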

rat granzyme K = target: T4, rat granzyme K (Rattus norvegicus, UniProt P49864); test: Inactivation rate of rat granzyme K, incubation method; details: Table I; 0.1M Hepes, 0.01M CaCl2 pH 7.5, 25° C., 7.1% DMSO, substrate Z--Arg--SBzl; NI = no inhibition after 25 min of incubation
T4 sequence (P49864 26-258): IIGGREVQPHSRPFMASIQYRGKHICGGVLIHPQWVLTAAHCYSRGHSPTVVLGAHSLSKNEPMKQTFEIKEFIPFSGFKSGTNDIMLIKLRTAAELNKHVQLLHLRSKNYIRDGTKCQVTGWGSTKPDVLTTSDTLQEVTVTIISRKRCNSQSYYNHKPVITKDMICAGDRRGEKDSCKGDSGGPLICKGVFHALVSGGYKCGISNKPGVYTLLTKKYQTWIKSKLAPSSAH
Procedure: as §1, §2, §3, §4, §5, §6, §7, §8, §9

[3] = Table II, 0.07 μM tryptase, 20-66 μM inhibitor, Hepes pH 7.5, heparin, 9% glycerol, 8% DMSO
[4] = Table II, 0.07 μM thrombin, 0.25-42 μM inhibitor, 80 mM Hepes pH 7.5, 428 mM NaCl, 8% DMSO
[5] = Table III, enzyme 0.06-0.5 μM, inhibitor 0.25-42 μM, 9% DMSO

| SMILES | kobs /[I] bovine trypsin (bovine trypsin [1]) [M⁻¹ s⁻¹] | kobsd /[I] human granzyme A (human granzyme A) [M⁻¹ s⁻¹] | kobsd /[I] rat granzyme A (rat granzyme A) [M⁻¹ s⁻¹] | kobsd /[I] mast cell tryptase (mast cell tryptase) [M⁻¹ s⁻¹] | kobs /[I] mast cell tryptase (mast cell tryptase; [3]) [M⁻¹ s⁻¹] | kobsd /[I] bovine trypsin (bovine trypsin [2]) [M⁻¹ s⁻¹] | kobs /[I] bovine trypsin (bovine trypsin [2]) | kobs /[I] human thrombin (human thrombin; [4]) | kobsd /[I] rat granzyme K (rat granzyme K) [M⁻¹ s⁻¹] | kobs /[I] mast cell tryptase (mast cell tryptase; [5]) [M⁻¹ s⁻¹] | kobs /[I] human thrombin (human thrombin; [5]) [M⁻¹ s⁻¹] |
| --- | --- | --- | --- | --- | --- | --- | --- | --- | --- | --- | --- |
| CC(C)(C)OC(=O)NC(CC(N)=O)C(=O)NC(CCCCN)P(=O)(Oc1ccccc1)Oc1ccccc1 (mixture of isomers) [Boc--Asn--Lys^P (OPh)2] | 3 | – | – | – | – | – | – | – | – | – | – |
| CC(NC(=O)OCc1ccccc1)C(=O)NC(c1ccc(C(=N)N)cc1)P(=O)(Oc1ccccc1)Oc1ccccc1 (mixture of isomers) [Cbz--Ala-(4-AmPhGly)^P (OPh)2] | – | 1670 ± 11 | 1270 ± 85 | 0.8 | 0.8 | 1850 ± 85 | 1,850 ± 85 M^-1 s^-1 | 750 ± 18 M⁻¹ s⁻¹ | – | – | – |
| N=C(N)c1ccc(C(NC(=O)C(CCCCN)NC(=O)OCc2ccccc2)P(=O)(Oc2ccccc2)Oc2ccccc2)cc1 (mixture of isomers) [Cbz--Lys-(4-AmPhGly)^P (OPh)2] | – | 30 ± 1 | 15 ± 1 | – | – | 30 ± 1 | 30 ± 1 M⁻¹ s⁻¹ | 88 ± 2 M⁻¹ s⁻¹ | 1 | – | – |
| CC(C)C(NC(=O)CCC(=O)O)C(=O)N1CCCC1C(=O)NC(CCCCN)P(=O)(Oc1ccccc1)Oc1ccccc1 (mixture of isomers) [Suc--Val--Pro--Lys^P (OPh)2] | 416 ± 28 | – | – | – | – | – | – | – | – | 0.6 | 3.4 ± 0.4 |
| CC(C)C(NC(=O)CCC(=O)O)C(=O)N1CCCC1C(=O)NC(CCCCCN)P(=O)(Oc1ccccc1)Oc1ccccc1 (mixture of isomers) [Suc--Val--Pro-HomoLys^P (OPh)2] | 51 ± 10 | – | – | – | – | – | – | – | – | 4.1 ± 0.4 | 1.6 ± 0.3 |
| N=C(N)c1ccc(C(NS(=O)(=O)c2cccc3ccccc23)P(=O)(Oc2ccccc2)Oc2ccccc2)cc1 (racemic) [1-NpSO2-(4-AmPhGly)^P (OPh)2] | – | 330 ± 26 | 30 ± 1 | 10 | 10 ± 1 | 170 ± 34 | 170 ± 34 M⁻¹ s⁻¹ | 24 ± 3 M⁻¹ s⁻¹ | – | – | – |
| N=C(N)c1ccc(C(NC(=O)Oc2cccc3ccccc23)P(=O)(Oc2ccccc2)Oc2ccccc2)cc1 (stereo not shown) [1-Naphthyloxycarbonyl-(4-AmPhGly)^P (OPh)2] | – | 160 ± 2 | 90 ± 9 | – | – | 30 ± 1 | 30 ± 1 M⁻¹ s⁻¹ | 30 ± 2 M⁻¹ s⁻¹ | 12 | – | – |
| Cl.N=C(N)c1ccc(C(NC(=O)[C@@H]2CCCN2C(=O)c2ccccc2Oc2ccccc2)P(=O)(Oc2ccccc2)Oc2ccccc2)cc1 (stereo partly shown) [Diphenyl N-(N-(2-Phenoxybenzoylprolyl))amino(4-amidinophenyl)methanephosphonate Hydrochloride] | – | 610 ± 88 | – | 0.9 | 0.9 | 7760 ± 310 | 7,760 ± 310 M^-1 s^-1 | 42,400 ± 4190 M^-1 s^-1 | 60 ± 5 | – | – |
| Cl.N=C(N)c1ccc(C(NC(=O)/C=C/c2cccnc2)P(=O)(Oc2ccccc2)Oc2ccccc2)cc1 (stereo not drawn) [Diphenyl N-(trans-3-(3-Pyridyl)acryloyl)amino(4-amidinophenyl)methanephosphonate Hydrochloride] | – | 5 | 1 | – | – | – | – | 2 M⁻¹ s⁻¹ | 3 | – | – |
| N=C(N)c1ccc(C(NC(=O)CCC(=O)O)P(=O)(Oc2ccccc2)Oc2ccccc2)cc1 (stereo not shown) [Suc-(4-AmPhGly)^P (OPh)2] | – | 857 | – | 0.2 | 0.2 | 45 ± 3 | 45 ± 3 M⁻¹ s⁻¹ | 2 M⁻¹ s⁻¹ | 0.3 ± 0.07 | – | – |
| C[C@H](NC(=O)CCC(=O)O)C(=O)N[C@@H](C)C(=O)NC(c1ccc(C(=N)N)cc1)P(=O)(Oc1ccccc1)Oc1ccccc1 (stereo partly shown) [Suc--Ala--Ala-(4-AmPhGly)^P (OPh)2] | – | 260 ± 15 | – | 0.7 | 0.7 | 640 ± 36 | 640 ± 36 M⁻¹ s⁻¹ | 2 M⁻¹ s⁻¹ | 0.3 ± 0.01 | – | – |
